Measured values as given in the NIST ThermoML archive (doi:10.1016/j.jct.2014.12.002).
Numbers after ± are expanded uncertainties.

Experiments:
[1] = Crystal
[2] = molar heat capacity at constant pressure; conditions: 100 kPa, Small sample (50 mg) DSC
[3] = Molar enthalpy of transition or fusion; conditions: Crystal; DSC

N#Cc1ccccc1-c1ccc(CBr)cc1 [4'-(bromomethyl)-2-cyanobiphenyl]
Conditions	molar volume [m3/mol]
[1], 293.15 K, 101.33 kPa, Pycnometric method	0.000223 ± 1.2e-06

Conditions	Normal melting temperature [°C]
[1], DTA	126.06 ± 0.53

[2]
Conditions	molar heat capacity at constant pressure [J/K/mol]
293.15 K, Crystal	253.23 ± 11
297.15 K, Crystal	256.2 ± 11
301.15 K, Crystal	259.07 ± 11
305.15 K, Crystal	261.5 ± 11
309.15 K, Crystal	265.03 ± 11
313.15 K, Crystal	268.1 ± 11
317.15 K, Crystal	271.41 ± 12
321.15 K, Crystal	274.74 ± 12
325.15 K, Crystal	277.96 ± 12
329.15 K, Crystal	281.51 ± 12
333.15 K, Crystal	284.37 ± 12
337.15 K, Crystal	287.74 ± 12
341.15 K, Crystal	291.32 ± 12
345.15 K, Crystal	294.58 ± 12
349.15 K, Crystal	298.15 ± 13
353.15 K, Crystal	300.62 ± 13
357.15 K, Crystal	303.82 ± 13
361.15 K, Crystal	306.86 ± 13
365.15 K, Crystal	309.09 ± 13
369.15 K, Crystal	314.38 ± 13
373.15 K, Crystal	317.58 ± 13
433.15 K, Liquid	408.2 ± 17
437.15 K, Liquid	410.68 ± 17
441.15 K, Liquid	413.2 ± 18
445.15 K, Liquid	415.66 ± 18
449.15 K, Liquid	417.96 ± 18
453.15 K, Liquid	420.63 ± 18
457.15 K, Liquid	423.5 ± 18
461.15 K, Liquid	425.47 ± 18
465.15 K, Liquid	427.72 ± 18
469.15 K, Liquid	429.91 ± 18
473.15 K, Liquid	432.48 ± 18
477.15 K, Liquid	434.9 ± 18
481.15 K, Liquid	437.62 ± 19
485.15 K, Liquid	440.31 ± 19
489.15 K, Liquid	441.88 ± 19
493.15 K, Liquid	444.14 ± 19

Conditions	Molar enthalpy of transition or fusion [kcal/mol]
[3]	7.05 ± 0.155
